Results: US20240025891A1 (Celgene Corporation, priority 2020, published 2024)

Each compound was assayed on Dirofilaria immitis microfilariae and 4th stage larvae (L4) (assay: Heartworm screen Dirofilaria immitis (DiMF and DiL4 assays)). Settings: read-out: D. immitis Act class.
Type: cell-based
Experimental: Heartworm Screen Dirofilaria immitis (D. immitis)
(§1) Dirofilaria immitis, Microfilaria (DiMF) Assay. Compounds were dissolved and serially diluted in DMSO. Aliquots were spotted to the empty wells of assay plates. Media and microfilariae of Dirofilaria immitis were added to each well to dilute the test compounds to the desired concentrations. Assay plates were incubated for approximately 72 hours, and the larvae in each well were observed microscopically for drug effect. Microfilariae in each well were assessed subjectively for survival or paralysis, and results were reported as Minimum Effective Dose (MED).
as §1, with “L4 stage (DiL4)” for “Microfilaria (DiMF)”, “4th stage larvae (L4)” for “microfilariae”, “Larvae” for “Microfilariae”
Active and selective (DiL4 vs. DiMF potency) example compounds were subsequently evaluated in heartworm positive dog studies to correlate the in vitro selectivity profile with in vivo effects on circulating microfilariae.
`Cc1ccnc(Nc2nc(-c3cc(C)ccn3)cs2)c1` [Example 220, N,4-bis(4-methylpyridin-2-yl)thiazol-2-amine] showed an IC50 of less than 200 nM.
`CSc1ccc(-c2csc(Nc3ncccc3C)n2)nc1` [Example 80, N-(3-methylpyridin-2-yl)-4-(5-(methylthio)pyridin-2-yl)thiazol-2-amine] was tested, and the IC50 was less than 200 nM.
`CCOc1ccc(-c2csc(Nc3ccc(C(F)(F)F)cn3)n2)nc1` [Example 95, 4-(5-ethoxypyridin-2-yl)-N-(5-(trifluoromethyl)pyridin-2-yl)thiazol-2-amine] was tested, and the IC50 was less than 200 nM.
`Cc1sc(Nc2ccccn2)nc1-c1ccccn1` [Example 227, 5-methyl-N,4-di(pyridin-2-yl)thiazol-2-amine] was tested, and the IC50 was less than 200 nM.
In the case of `c1ccc(-c2csc(Nc3cc4[nH]ccc4cn3)n2)nc1` [Example 136, 4-(pyridin-2-yl)-N-(1H-pyrrolo [3,2-c]pyridin-6-yl)thiazol-2-amine], the IC50 is reported as 500 to 5000 nM.
In the case of `CCOc1ccc(-c2csc(Nc3ccc(C)cn3)n2)nc1` [Example 81, 4-(5-ethoxypyridin-2-yl)-N-(5-methylpyridin-2-yl)thiazol-2-amine], the IC50 is reported as less than 200 nM.
`c1ccc(-c2csc(Nc3cc(-c4ncccn4)ccn3)n2)nc1` [Example 174, 4-(pyridin-2-yl)-N-(4-(pyrimidin-2-yl)pyridin-2-yl)thiazol-2-amine] showed an IC50 of 200 to 500 nM.
Work on `c1ccc(-c2csc(Nc3cc(C4CCC4)ccn3)n2)nc1` [Example 168, N-(4-cyclobutyl-pyridin-2-yl)-4-(pyridin-2-yl)thiazol-2-amine] yielded an IC50 of less than 200 nM.
For `Cc1cccnc1Nc1nc(-c2ccc(OC3CC3)cn2)cs1` [Example 48], the IC50 was 200 to 500 nM.
Work on `CCOc1ccc(-c2csc(Nc3ncc(F)cc3C)n2)nc1` [Example 79, 4-(5-ethoxypyridin-2-yl)-N-(5-fluoro-3-methylpyridin-2-yl)thiazol-2-amine] yielded an IC50 of 200 to 500 nM.
`O=C(NC1CC1)c1ccnc(Nc2nc(-c3ccccn3)cs2)c1` [Example 170, N-cyclopropyl-2-(4-(pyridin-2-yl)thiazol-2-ylamino) isonicotinamide] gave an IC50 of 500 to 5000 nM.
`Cc1ccnc(Nc2nc(-c3cc(OC4CN(C)C4)ccn3)cs2)c1` [Example 98, 4-(4-(1-methylazetidin-3-yloxy)pyridin-2-yl)-N-(4-methylpyridin-2-yl)thiazol-2-amine] gave an IC50 of 500 to 5000 nM.
`c1ccc(-c2csc(Nc3ccc(C4CCCC4)cn3)n2)nc1` [Example 138, N-(5-cyclopentyl-pyridin-2-yl)-4-(pyridin-2-yl)thiazol-2-amine] was tested, and the IC50 was less than 200 nM.
For `Cc1ccnc(Nc2nc(-c3cc(OC4COC4)ccn3)cs2)c1` [Example 102, N-(4-methylpyridin-2-yl)-4-(4-(oxetan-3-yloxy)pyridin-2-yl)thiazol-2-amine], the IC50 was 500 to 5000 nM.
`Cc1ccnc(Nc2nc(-c3ncccc3C#N)cs2)c1` [Example 92, 2-(2-(4-methylpyridin-2-ylamino)thiazol-4-yl)nicotinonitrile] gave an IC50 of 500 to 5000 nM.
`COc1cccnc1-c1csc(Nc2cc(C)ccn2)n1` [Example 7] gave an IC50 of 200 to 500 nM.
With `c1ccc(-c2csc(Nc3cc(-c4cccnn4)ccn3)n2)nc1` [Example 169, N-(4-(pyridazin-3-yl)pyridin-2-yl)-4-(pyridin-2-yl)thiazol-2-amine] the IC50 was 500 to 5000 nM.
Compound `CCOc1ccc(-c2csc(Nc3ncc(C)cc3C)n2)nc1` [Example 88, N-(3,5-dimethylpyridin-2-yl)-4-(5-ethoxypyridin-2-yl)thiazol-2-amine] has an IC50 of less than 200 nM.
For `CCOc1cccnc1-c1csc(Nc2cc(C)ccn2)n1` [Example 72, 4-(3-ethoxypyridin-2-yl)-N-(4-methylpyridin-2-yl)thiazol-2-amine], the IC50 was less than 200 nM.
In the case of `CCc1cnc(Nc2nc(-c3ccccn3)cs2)cc1C(F)(F)F` [Example 130, N-(5-ethyl-4-(trifluoro-methyl)pyridin-2-yl)-4-(pyridin-2-yl)thiazol-2-amine], the IC50 is reported as less than 200 nM.
For `Cc1cnc(Nc2nc(-c3ccccn3)cs2)c(C)c1` [Example 124, N-(3,5-dimethyl-pyridin-2-yl)-4-(pyridin-2-yl)thiazol-2-amine], the IC50 was less than 200 nM.
For `CCOc1ccc(-c2csc(Nc3ccc(Cl)cn3)n2)nc1` [Example 85, N-(5-chloropyridin-2-yl)-4-(5-ethoxypyridin-2-yl)thiazol-2-amine], the IC50 was 500 to 5000 nM.
With `Cc1ccnc(Nc2nc(-c3cc(Cl)ccn3)cs2)c1` [Example 223, 4-(4-chloropyridin-2-yl)-N-(4-methylpyridin-2-yl)thiazol-2-amine] the IC50 was less than 200 nM.
With `Cc1ccnc(Nc2nc(-c3ncccc3-c3ccccc3)cs2)c1` [Example 103, N-(4-methylpyridin-2-yl)-4-(3-phenylpyridin-2-yl)thiazol-2-amine] the IC50 was less than 200 nM.
In the case of `Cc1ccnc(Nc2nc(-c3ccccn3)c(C(C)(C)C)s2)c1` [Example 181, 5-tert-butyl-N-(4-methylpyridin-2-yl)-4-(pyridin-2-yl)thiazol-2-amine], the IC50 is reported as 500 to 5000 nM.
`CC(=O)N(C)c1cc(C(F)(F)F)cnc1Nc1nc(-c2cc3c(cn2)N(C)CC3)cs1` [Example 76, N-methyl-N-(2-(4-(1-methyl-2,3-dihydro-1H-pyrrolo[2,3-c]pyridin-5-yl)thiazol-2-ylamino)-5-(trifluoromethyl)pyridin-3-yl)acetamide] gave an IC50 of 500 to 5000 nM.
Compound `Cc1ccnc(-c2csc(Nc3ncccc3C)n2)c1` [Example 222, N-(3-methylpyridin-2-yl)-4-(4-methylpyridin-2-yl)thiazol-2-amine] has an IC50 of less than 200 nM.
`c1ccc(-c2csc(Nc3cc(C4CC4)ccn3)n2)nc1` [Example 176, N-(4-cyclopropyl-pyridin-2-yl)-4-(pyridin-2-yl)thiazol-2-amine] was tested, and the IC50 was less than 200 nM.
Work on `Cc1cc(C(F)(F)F)cnc1Nc1nc(-c2cc3c(cn2)N(C)CC3)cs1` [Example 97, 4-(1-methyl-2,3-dihydro-1H-pyrrolo[2,3-c]pyridin-5-yl)-N-(3-methyl-5-(trifluoromethyl)pyridin-2-yl)thiazol-2-amine] yielded an IC50 of less than 200 nM.
Work on `CCOc1cccc(-c2csc(Nc3ncccc3C)n2)n1` [Example 71] yielded an IC50 of 500 to 5000 nM.
`COc1ccnc(-c2csc(Nc3ncc(C(F)(F)F)cc3N(C)C(C)=O)n2)c1` [Example 96, N-(2-(4-(4-methoxypyridin-2-yl)thiazol-2-ylamino)-5-(trifluoromethyl)pyridin-3-yl)-N-methylacetamide] gave an IC50 of 200 to 500 nM.
With `CC(C)c1ccc(Nc2nc(-c3ccccn3)cs2)nc1` [Example 219, N-(5-isopropylpyridin-2-yl)-4-(pyridin-2-yl)thiazol-2-amine] the IC50 was less than 200 nM.
`COc1ccnc(Nc2nc(-c3ccccn3)cs2)c1` [Example 121, N-(4-methoxypyridin-2-yl)-4-(pyridin-2-yl)thiazol-2-amine] showed an IC50 of 200 to 500 nM.
`c1ccc(-c2csc(Nc3cc(-c4cnccn4)ccn3)n2)nc1` [Example 173, N-(4-(pyrazin-2-yl)pyridin-2-yl)-4-(pyridin-2-yl)thiazol-2-amine] showed an IC50 of 200 to 500 nM.
For `c1ccc(-c2ccnc(Nc3nc(-c4ccccn4)cs3)c2)cc1` [Example 126, N-(4-phenylpyridin-2-yl)-4-(pyridin-2-yl)thiazol-2-amine], the IC50 was less than 200 nM.
Work on `COc1ccc(-c2csc(Nc3cc(C)ccn3)n2)nc1` [Example 225, 4-(5-methoxypyridin-2-yl)-N-(4-methylpyridin-2-yl)thiazol-2-amine] yielded an IC50 of 200 to 500 nM.
`CCOc1ccc(-c2csc(Nc3cc(C)ccn3)n2)nc1` [Example 91, 4-(5-ethoxypyridin-2-yl)-N-(4-methylpyridin-2-yl)thiazol-2-amine] was tested, and the IC50 was less than 200 nM.
In the case of `Cc1ccnc(Nc2nc(-c3ccc(Cl)cn3)cs2)c1` [Example 89, 4-(5-chloropyridin-2-yl)-N-(4-methylpyridin-2-yl)thiazol-2-amine], the IC50 is reported as 200 to 500 nM.
`Cc1cnc(Nc2nc(-c3ccccn3)cs2)cc1C(F)(F)F` [Example 129, N-(5-methyl-4-(trifluoro-methyl)pyridin-2-yl)-4-(pyridin-2-yl)thiazol-2-amine] showed an IC50 of less than 200 nM.
`CCOc1cnc(-c2csc(Nc3cc(C)ccn3)n2)c(C)c1` [Example 74, 4-(5-ethoxy-3-methylpyridin-2-yl)-N-(4-methylpyridin-2-yl)thiazol-2-amine] showed an IC50 of less than 200 nM.
